Source: PubChem BioAssay (NCI)
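1) Cells in 96-well plates. 2) Compound, 48 h, 5 concentrations. 3) Linear interpolation between surrounding doses. 4) Unreached endpoint = highest concentration. TGI: total growth inhibition.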

Legend:
Experiment in all cases: DTP human tumour cell line panel, 48 h
[1] = test system: HCC-2998 colon
[2] = test system: KM12 colon
[3] = test system: UO-31 renal
[4] = test system: DMS 273 small cell lung
[5] = test system: CCRF-CEM leukemia
[6] = test system: SF-268 CNS
[7] = test system: COLO 205 colon
[8] = test system: U251 CNS
[9] = test system: HOP-18 NSCLC
[10] = test system: UACC-62 melanoma
[11] = test system: OVCAR-5 ovarian
[12] = test system: SK-OV-3 ovarian
[13] = test system: KM20L2 colon
[14] = test system: M14 melanoma
[15] = test system: HCT-15 colon
[16] = test system: OVCAR-4 ovarian
[17] = test system: OVCAR-3 ovarian
[18] = test system: DLD-1 colon
[19] = test system: K-562 leukemia
[20] = test system: SF-539 CNS
[21] = test system: SW-620 colon
[22] = test system: 786-0 renal
[23] = test system: NCI-H23 lung
[24] = test system: SK-MEL-28 melanoma
[25] = test system: MALME-3M melanoma
[26] = test system: SK-MEL-5 melanoma
[27] = test system: HOP-62 NSCLC
[28] = test system: OVCAR-8 ovarian
[29] = test system: HOP-92 NSCLC
[30] = test system: CAKI-1 renal
[31] = test system: LOX IMVI melanoma
[32] = test system: ACHN renal
[33] = test system: M19-MEL melanoma
[34] = test system: SR leukemia
[35] = test system: SNB-19 CNS
[36] = test system: TK-10 renal
[37] = test system: SNB-75 CNS
[38] = test system: SK-MEL-2 melanoma
[39] = test system: LXFL 529 NSCLC
[40] = test system: IGROV1 ovarian
[41] = test system: MOLT-4 leukemia
[42] = test system: A498 renal
[43] = test system: NCI-H522 lung
[44] = test system: HT29 colon
[45] = test system: DMS 114 small cell lung
[46] = test system: SF-295 CNS
[47] = test system: NCI-H460 lung
[48] = test system: A549 NSCLC
[49] = test system: SN12C renal
[50] = test system: RXF 393 renal
[51] = test system: RPMI-8226 leukemia
[52] = test system: HL-60(TB) leukemia
[53] = test system: HCT-116 colon
[54] = test system: EKVX NSCLC
[55] = test system: SNB-78 CNS
[56] = test system: UACC-257 melanoma
[57] = test system: NCI-H226 lung
[58] = test system: DU-145 prostate
[59] = test system: PC-3 prostate
[60] = test system: MDA-N
[61] = test system: BT-549 breast
[62] = test system: MDA-MB-231 breast
[63] = test system: HS 578T breast
[64] = test system: MDA-MB-435
[65] = test system: T-47D breast
[66] = test system: NCI/ADR-RES ovarian
[67] = test system: MCF7 breast
[68] = test system: XF 498 CNS

CN(C)c1ccc(/C=C2\C=Cc3ccccc32)cc1
TGI [1]: > 100 µM | TGI [2]: > 100 µM | TGI [3]: > 100 µM | TGI [4]: > 100 µM | TGI [5]: > 100 µM | TGI [6]: > 100 µM | TGI [7]: > 100 µM | TGI [8]: > 100 µM | TGI [9]: > 100 µM | TGI [10]: > 100 µM | TGI [11]: > 100 µM | TGI [12]: > 100 µM | TGI [13]: > 100 µM | TGI [14]: > 100 µM | TGI [15]: > 100 µM | TGI [16]: > 100 µM | TGI [17]: > 100 µM | TGI [18]: > 100 µM | TGI [19]: > 100 µM | TGI [20]: > 100 µM | TGI [21]: > 100 µM | TGI [22]: > 100 µM | TGI [23]: > 100 µM | TGI [24]: > 100 µM | TGI [25]: > 100 µM | TGI [26]: > 100 µM | TGI [27]: > 100 µM | TGI [28]: > 100 µM | TGI [29]: > 100 µM | TGI [30]: > 100 µM | TGI [31]: > 100 µM | TGI [32]: > 100 µM | TGI [33]: > 100 µM | TGI [34]: > 100 µM | TGI [35]: > 100 µM | TGI [36]: > 100 µM | TGI [37]: 57 µM | TGI [38]: > 100 µM | TGI [39]: > 100 µM | TGI [40]: > 100 µM | TGI [41]: > 100 µM | TGI [42]: > 100 µM | TGI [43]: 52.3 µM | TGI [44]: > 100 µM | TGI [45]: 89.6 µM | TGI [46]: > 100 µM | TGI [47]: > 100 µM | TGI [48]: > 100 µM | TGI [49]: > 100 µM | TGI [50]: 84.4 µM | TGI [51]: > 100 µM | TGI [52]: > 100 µM | TGI [53]: > 100 µM

O=C(O)/C(Cl)=C(\Cl)C(=O)Nc1ccc(Cl)c(Cl)c1Cl
TGI [1]: 35.1 µM | TGI [2]: 36.6 µM | TGI [3]: 30 µM | TGI [4]: 36.2 µM | TGI [5]: > 100 µM | TGI [6]: 42.8 µM | TGI [7]: 34.8 µM | TGI [8]: 34.3 µM | TGI [9]: 31 µM | TGI [10]: 26.1 µM | TGI [54]: 37.1 µM | TGI [11]: 32.1 µM | TGI [12]: 35.2 µM | TGI [55]: 84.7 µM | TGI [13]: 44.7 µM | TGI [14]: 32.5 µM | TGI [15]: 34.8 µM | TGI [16]: 33.6 µM | TGI [17]: 35.5 µM | TGI [56]: 36.2 µM | TGI [18]: 47.3 µM | TGI [19]: 83.1 µM | TGI [20]: 35.6 µM | TGI [21]: 35.3 µM | TGI [22]: 32.1 µM | TGI [23]: 33.2 µM | TGI [24]: 42.7 µM | TGI [25]: 34.9 µM | TGI [26]: 68.9 µM | TGI [27]: 62.3 µM | TGI [29]: 31.1 µM | TGI [30]: 32 µM | TGI [31]: 31.2 µM | TGI [32]: 32 µM | TGI [33]: 30.8 µM | TGI [34]: 70.1 µM | TGI [35]: 30.2 µM | TGI [36]: 30.9 µM | TGI [37]: 34.8 µM | TGI [38]: 33.9 µM | TGI [39]: 37.9 µM | TGI [40]: 38.7 µM | TGI [41]: 59.7 µM | TGI [42]: 95.6 µM | TGI [43]: 23.7 µM | TGI [44]: 39.9 µM | TGI [57]: 35.5 µM | TGI [45]: 35.1 µM | TGI [46]: 33 µM | TGI [47]: 45.9 µM | TGI [48]: 35.2 µM | TGI [49]: 36.7 µM | TGI [51]: 88.3 µM | TGI [52]: 45.4 µM | TGI [53]: 28.1 µM

Cc1cc(O)c(C(C)C)cc1C1(c2cc(C(C)C)c(O)cc2C)OC(=O)c2ccccc21
TGI [1]: 3.48 µM | TGI [2]: 3.33 µM | TGI [3]: 7.04 µM | TGI [5]: 3.1 µM | TGI [58]: 4.41 µM | TGI [6]: 4.83 µM | TGI [7]: 4.96 µM | TGI [8]: 3.9 µM | TGI [59]: 4.95 µM | TGI [10]: 2.87 µM | TGI [54]: 9.25 µM | TGI [11]: 5.92 µM | TGI [12]: > 33.3 µM | TGI [14]: 3.15 µM | TGI [15]: 4.93 µM | TGI [60]: 3.11 µM | TGI [16]: 5.26 µM | TGI [17]: 4.85 µM | TGI [56]: 3.6 µM | TGI [61]: 5.53 µM | TGI [19]: 3.25 µM | TGI [20]: 3.72 µM | TGI [21]: 4.57 µM | TGI [22]: 5.52 µM | TGI [62]: 4.54 µM | TGI [23]: 5.13 µM | TGI [24]: 3.07 µM | TGI [25]: 5.21 µM | TGI [26]: 2.99 µM | TGI [27]: 8.75 µM | TGI [28]: 9.14 µM | TGI [63]: 6.88 µM | TGI [64]: 3.01 µM | TGI [29]: 7.78 µM | TGI [30]: 18.4 µM | TGI [31]: 3.53 µM | TGI [32]: 8.99 µM | TGI [34]: 4.02 µM | TGI [35]: > 35.1 µM | TGI [36]: 11.1 µM | TGI [37]: 6.16 µM | TGI [38]: 3.28 µM | TGI [40]: 8.89 µM | TGI [41]: 3.38 µM | TGI [65]: 6.44 µM | TGI [42]: 7.1 µM | TGI [43]: 4.48 µM | TGI [44]: 5.84 µM | TGI [66]: 12 µM | TGI [57]: 6.3 µM | TGI [46]: 3.69 µM | TGI [47]: 3.99 µM | TGI [48]: 12.8 µM | TGI [49]: 4.35 µM | TGI [50]: 3.02 µM | TGI [51]: 3.17 µM | TGI [52]: 1.24 µM | TGI [53]: 3.09 µM | TGI [67]: 3.6 µM

Nc1ccc(C(=O)NN2C(=O)C(Cl)C2c2ccccc2)cc1 (stereo unspecified)
TGI [1]: > 100 µM | TGI [2]: > 100 µM | TGI [3]: > 100 µM | TGI [4]: > 100 µM | TGI [5]: > 100 µM | TGI [6]: > 100 µM | TGI [7]: > 100 µM | TGI [8]: > 100 µM | TGI [10]: > 100 µM | TGI [54]: > 100 µM | TGI [11]: > 100 µM | TGI [12]: > 100 µM | TGI [55]: > 100 µM | TGI [13]: > 100 µM | TGI [14]: > 100 µM | TGI [15]: > 100 µM | TGI [16]: > 100 µM | TGI [17]: > 100 µM | TGI [56]: > 100 µM | TGI [18]: > 100 µM | TGI [19]: > 100 µM | TGI [20]: > 100 µM | TGI [21]: > 100 µM | TGI [22]: > 100 µM | TGI [23]: > 100 µM | TGI [24]: > 100 µM | TGI [25]: > 100 µM | TGI [26]: > 100 µM | TGI [27]: > 100 µM | TGI [28]: > 100 µM | TGI [29]: > 100 µM | TGI [30]: > 100 µM | TGI [31]: > 100 µM | TGI [32]: > 100 µM | TGI [33]: > 100 µM | TGI [35]: > 100 µM | TGI [36]: > 100 µM | TGI [37]: > 100 µM | TGI [38]: > 100 µM | TGI [39]: > 100 µM | TGI [40]: > 100 µM | TGI [41]: > 100 µM | TGI [42]: > 100 µM | TGI [43]: > 100 µM | TGI [44]: > 100 µM | TGI [57]: > 100 µM | TGI [45]: > 100 µM | TGI [46]: > 100 µM | TGI [47]: > 100 µM | TGI [48]: > 100 µM | TGI [49]: > 100 µM | TGI [51]: > 100 µM | TGI [53]: > 100 µM | TGI [68]: > 100 µM
